Test results published in patent publication US9174932B2, “CaSR agonists” (AJINOMOTO CO., INC., priority 2008, dated 2015).

Assays:
[1] = Quantitative sensory evaluation test of kokumi-imparting activity; parameters: species or system human; settings: for Intensity of kokumi After taste / Intensity of kokumi First-middle taste: score control 0, strong 3, very strong 5, n=4
Experimental: The kokumi-imparting effects can be confirmed by the method such as a gustatory test by a human being as mentioned in Examples of the present invention, but it is not limited to those.
On compounds wherein a calcium receptor activating action was found (sodium salts of Compound Nos. 1, 7 and 21), the intensity of kokumi-imparting activity was examined by a quantitative sensory evaluation test. The used compound was prepared by dissolving 525 mg of the compound No. 1 described in Synthetic Example 1 of Example I in 5 mL of distilled water, adjusting it to pH6.5 to 7 by adding 16.4 mL of 0.1M sodium hydroxide solution thereto, and freeze-drying it to obtain a sodium salt thereof. Further, the used compound was also prepared as follows. 500 mg of the compound No. 7 described in Synthetic Example 7 of Example I was suspended in 5 mL of distilled water. 1.61 mL of 1M sodium hydroxide and 0.8 mL of 2M hydrochloric acid were added thereto at 0° C. respectively to precipitate a solid substance. The precipitated solid substance was taken by filtration and dried under reduced pressure at 40° C. to obtain 426 mg of the compound No. 7. The obtained solid substance was suspended in 10 mL of distilled water. 1.2 mL of 1M sodium hydroxide was added thereto and freeze-dried to obtain a sodium salt thereof. The compound No. 21 was used in the form of a sodium salt of the compound No. 21 described in Synthetic Example 21 of Example I, which was prepared by the same method as mentioned above.
A quantitative sensory evaluation test was conducted as follows. 0.000001 to 0.1 g/dL of the compound(s) (a sodium salt of No. 1) was mixed as a sample to distilled water containing glutamic sodium (0.05 g/dL), inosine monophosphate (0.05 g/dL) and sodium chloride (0.5 g/dL). Then, the intensity of kokumi-imparting activity was examined at that time. As a reference, γ Glu-Cys-Gly and γ Glu-Val-Gly were used, each of which is a known kokumi-imparting component. As for a sample that becomes acidic to an additive-free control after dissolving the sample, it was used by being adjusted with sodium hydroxide to become within pH±0.2 to the additive-free control. As for sensory scoring, it was defined as a control: 0, strong: 3, and very strong: 5; and n=4. Meanwhile, “first-middle taste” means the taste combining first taste and middle taste. The kokumi-imparting activity was widely seen in the above addition concentrations, and the results of the representative concentrations are shown in Table 5.

[2] = tested on: rat large intestine loop; assay: Effect of a CaSR agonist on water absorption in rat large intestine loop method (PGE2-treated); type: in vivo; settings: male SD (IGS) rat large intestine loop, PGE2 i.p.; compound in Tyrode solution
Experimental: The cecum and large intestine were taken out from the abdomen of a male SD (IGS) rat under pentobarbital anesthesia, and a large intestine loop was prepared by ligating a part 5 cm just below the cecum. Immediately after preparing the loop, PGE2 (4 μg/mL/kg, SIGMA) was intraperitoneally administered. 30 minutes later, 2 mL of Tyrode solution (NaCl 136.9 mM, KCl 2.7 mM, CaCl2.2H2O 1.8 mM, MgCl2.6H2O 1.04 mM, NaH2PO4.2H2O 0.04 mM, glucose 5.55 mM, NaHCO3 11.9 mM) was poured in the prepared loop. 1 hour later, the weight of the loop, the weight thereof when the liquid was removed from the loop, and the loop area were measured to calculate the weight per unit area of the liquid that remains in the loop.
A test compound was tested by dissolving it in Tyrode solution that was adjusted to pH 6.5 to 7.5.
The remaining liquid weight per unit area (g/cm^2) was calculated by the following formula. Remaining liquid weight per unit area (g/cm^2)=(loop weight−loop weight when the liquid was removed from the loop)/loop area
Water absorption was evaluated by calculating the inhibition ratio by the following formula. Inhibition ration (%)=100−(remaining liquid weight per unit area with a drug−basic average remaining liquid weight per unit area)/(average remaining liquid weight per unit area of vehicle−basic average remaining liquid weight per unit area)×100 […]

[3] = target: T1, human CaSR (Homo sapiens, UniProt P41180, E1011Q); assay: Evaluation of CaSR agonistic activity (293E cells transfected with hCaSR, Ca2+ fluorescent indicator, FLIPR); type: cell-based; settings: 293E cells expressing human CaSR; concentration giving activation rate 50%
T1 construct: expressed in transfected cells; host or cells: 293E cells (HEK293 expressing EBNA1, ATCC CRL-10852), transient transfection of hCaSR/pcDNA3.1
T1 sequence (P41180 20-1078 E1011Q): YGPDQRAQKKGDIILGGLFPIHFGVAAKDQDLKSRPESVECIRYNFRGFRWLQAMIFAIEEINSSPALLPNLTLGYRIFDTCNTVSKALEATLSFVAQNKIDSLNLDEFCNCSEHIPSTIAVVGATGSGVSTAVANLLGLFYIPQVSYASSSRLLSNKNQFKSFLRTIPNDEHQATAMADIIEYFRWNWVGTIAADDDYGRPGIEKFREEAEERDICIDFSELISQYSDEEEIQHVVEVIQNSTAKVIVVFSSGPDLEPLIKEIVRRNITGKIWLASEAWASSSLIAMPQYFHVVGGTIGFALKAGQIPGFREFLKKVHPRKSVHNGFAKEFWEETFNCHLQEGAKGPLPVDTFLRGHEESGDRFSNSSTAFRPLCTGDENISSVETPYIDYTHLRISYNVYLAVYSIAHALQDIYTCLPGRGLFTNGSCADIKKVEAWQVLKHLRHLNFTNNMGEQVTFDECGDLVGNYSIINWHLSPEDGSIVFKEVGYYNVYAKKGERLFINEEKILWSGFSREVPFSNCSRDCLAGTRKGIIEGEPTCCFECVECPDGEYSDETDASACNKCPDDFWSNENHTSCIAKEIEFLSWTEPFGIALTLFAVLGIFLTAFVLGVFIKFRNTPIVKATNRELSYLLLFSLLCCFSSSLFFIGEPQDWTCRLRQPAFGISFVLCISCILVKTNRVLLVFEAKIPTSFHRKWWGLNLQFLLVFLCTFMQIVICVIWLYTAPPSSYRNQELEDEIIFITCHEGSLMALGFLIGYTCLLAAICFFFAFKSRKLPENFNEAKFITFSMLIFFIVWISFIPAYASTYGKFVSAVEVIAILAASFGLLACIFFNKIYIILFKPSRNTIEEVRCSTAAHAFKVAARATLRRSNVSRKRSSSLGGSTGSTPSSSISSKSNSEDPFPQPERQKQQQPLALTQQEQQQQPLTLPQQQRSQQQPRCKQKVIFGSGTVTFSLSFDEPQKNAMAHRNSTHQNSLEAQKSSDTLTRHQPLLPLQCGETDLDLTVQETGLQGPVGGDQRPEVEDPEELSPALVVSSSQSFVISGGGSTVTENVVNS
Experimental: 293E cells (HEK293 cell expressing EBNA1, ATCC No. CRL-10852) were cultured in DMEM containing 10% fetal bovine serum (Dulbecco's modified Eagle medium containing […] Glucose, by NACALAI TESQUE, INC.), in the presence of 250 μg/mL of G418. The cells were spread on a petri dish of 10 cm diameter in 1.8×10^6 cells/15 mL. After leaving them in the CO2 incubator (5% CO2, 37° C.) for 24 hours, plasmid expressing human CaSR: hCaSR/pcDNA3.1 was transfected with a transfection reagent: Mirus TransIT 293 (by Takara Bio Inc.). After leaving it in the CO2 incubator for 24 hours, the cells were collected by DMEM containing 10% fetal bovine serum and seeded on poly-D-lysine coat 384 well plate (by Falcon) in 15,000 cells/well. After leaving them in the CO2 incubator for 24 hours, the medium was removed. Then, 50 μL/well of Ca^2+ fluorescent indicator: Calcium 4 Assay Kit (by Molecular Devices) that was dissolved in an assay buffer (146 mM NaCl, 5 mM KCl, 1 mM MgSO4, 1 mg/mL Glucose, 20 mM HEPES (pH 7.2), 1.5 mM CaCl2) was added thereto, and left at 37° C. for 1 hour and at room temperature for 30 minutes to absorb the fluorescent indicator. The 384 well plate was transferred to FLIPR (by Molecular Devices). Then, 12.5 μL/well of a compound that was dissolved in a 0.1% BSA containing assay buffer was added thereto, and change in fluorescence intensity was measured for 3 minutes. Meanwhile, Compound No. 20 was purchased from Bachem.
The difference between the maximum value and the minimum value (RFU(Max−Min)) of the fluorescence intensity before and after adding a compound was automatically calculated by FLIPR. RFU(Max−Min) when adding a compound in maximum concentration was defined as 100%; and RFU(Max−Min) when adding DMSO instead of the compound in the same concentration as that of the compound was defined as 0%.

**Q.** Which results are given for “γ Glu-Val-Gly [γGlu-Val-Gly, reference compound]”?
**A.** Comments ([1]; Conc. 0.001 g/dL): Mellowness, richness and growth; Intensity of kokumi After taste ([1]; Conc. 0.001 g/dL): 3.0; Intensity of kokumi First-middle taste ([1]; Conc. 0.001 g/dL): 2.5; Comments ([1]; Conc. 0.005 g/dL): Mellowness, richness and growth; Intensity of kokumi After taste ([1]; Conc. 0.005 g/dL): 4.0; Intensity of kokumi First-middle taste ([1]; Conc. 0.005 g/dL): 3.5

**Q.** For `N[C@@H](CCC(=O)Nc1cc(Cl)cc(S(=O)(=O)O)c1O)C(=O)O` [Compound No. 7, N^5-(5-chloro-2-hydroxy-3-sulfophenyl)-L-glutamine], which Water absorption [2] is on record?
**A.** promoted in a dose-dependent manner

**Q.** What about the EC50 [3] of the same compound?
**A.** 1.9 nM

**Q.** What does the source list for `N[C@@H](CCC(=O)Nc1cccc(S(=O)(=O)O)c1)C(=O)O` [Compound No. 1, N^5-(3-sulfophenyl)-L-glutamine]?
**A.** Water absorption [2]: promoted in a dose-dependent manner; EC50 [3]: 12 nM

**Q.** For `N[C@@H](CCC(=O)Nc1cc(Cl)cc(S(=O)(=O)[O-])c1O)C(=O)O.[Na+]` [No.7-Na salt], which “Intensity of kokumi After taste” value ([1]; Conc. 0.00005 g/dL) is on record?
**A.** 2.5

**Q.** What about the “Intensity of kokumi First-middle taste” value ([1]; Conc. 0.00005 g/dL) of the same compound?
**A.** 2.2

**Q.** And the Comments ([1]; Conc. 0.0001 g/dL)?
**A.** There is about the same thickness

**Q.** And the “Intensity of kokumi After taste” value ([1]; Conc. 0.0001 g/dL)?
**A.** 3.2

**Q.** What about the “Intensity of kokumi First-middle taste” value ([1]; Conc. 0.0001 g/dL) of the same compound?
**A.** 2.5

**Q.** What about the “Intensity of kokumi After taste” value ([1]; Conc. 0.0005 g/dL) of the same compound?
**A.** 4.0

**Q.** What about the “Intensity of kokumi First-middle taste” value ([1]; Conc. 0.0005 g/dL) of the same compound?
**A.** 3.3

**Q.** With `N[C@@H](CCC(=O)Nc1cccc(S(=O)(=O)[O-])c1)C(=O)O.[Na+]` [No.1-Na salt] as the compound, how does the “Intensity of kokumi After taste” value ([1]; Conc. 0.00001 g/dL) read?
**A.** 1.0

**Q.** And the “Intensity of kokumi First-middle taste” value ([1]; Conc. 0.00001 g/dL)?
**A.** 0.7

**Q.** And the “Intensity of kokumi After taste” value ([1]; Conc. 0.0001 g/dL)?
**A.** 2.0

**Q.** And the “Intensity of kokumi First-middle taste” value ([1]; Conc. 0.0001 g/dL)?
**A.** 1.8

**Q.** And the “Intensity of kokumi After taste” value ([1]; Conc. 0.0005 g/dL)?
**A.** 3.0

**Q.** What about the “Intensity of kokumi First-middle taste” value ([1]; Conc. 0.0005 g/dL) of the same compound?
**A.** 2.6

**Q.** What about the Comments ([1]; Conc. 0.001 g/dL) of the same compound?
**A.** All tastes are strong, mainly

**Q.** What about the “Intensity of kokumi After taste” value ([1]; Conc. 0.001 g/dL) of the same compound?
**A.** 3.6

**Q.** And the “Intensity of kokumi First-middle taste” value ([1]; Conc. 0.001 g/dL)?
**A.** 3.2

**Q.** What about the Comments ([1]; Conc. 0.01 g/dL) of the same compound?
**A.** All tastes are strong.

**Q.** What about the “Intensity of kokumi After taste” value ([1]; Conc. 0.01 g/dL) of the same compound?
**A.** 5.0

**Q.** What about the “Intensity of kokumi First-middle taste” value ([1]; Conc. 0.01 g/dL) of the same compound?
**A.** 5.0

**Q.** Which results are given for “γ Glu-Cys-Gly [γGlu-Cys-Gly, reference compound]”?
**A.** Comments ([1]; Conc. 0.01 g/dL): Richness, thickness and continuity; Intensity of kokumi After taste ([1]; Conc. 0.01 g/dL): 3.0; Intensity of kokumi First-middle taste ([1]; Conc. 0.01 g/dL): 3.0

**Q.** For `Cc1c(Cl)cc(NC(=O)CC[C@H](N)C(=O)O)cc1S(=O)(=O)[O-].[Na+]` [No.21-Na salt], which “Intensity of kokumi After taste” value ([1]; Conc. 0.0002 g/dL) is on record?
**A.** 2.0

**Q.** And the “Intensity of kokumi First-middle taste” value ([1]; Conc. 0.0002 g/dL)?
**A.** 1.5

**Q.** And the “Intensity of kokumi After taste” value ([1]; Conc. 0.0005 g/dL)?
**A.** 3.1

**Q.** And the “Intensity of kokumi First-middle taste” value ([1]; Conc. 0.0005 g/dL)?
**A.** 2.6

**Q.** What about the “Intensity of kokumi After taste” value ([1]; Conc. 0.001 g/dL) of the same compound?
**A.** 3.7

**Q.** And the “Intensity of kokumi First-middle taste” value ([1]; Conc. 0.001 g/dL)?
**A.** 3.1
